According to PubChem BioAssay (NCI):
Where “and” joins values, the source holds several entries; their conditions need not be identical. Equal values may be shown once.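 Tested at 5 concentrations; 48 h exposure; 96-well plates; endpoints linearly interpolated, else capped at highest concentration. At the GI50, growth is halved. TGI marks complete inhibition of growth.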

Legend:
Assay in all cases: NCI anticancer screen, dose series, 48 h
SK-MEL-5 melanoma = tested on: SK-MEL-5 melanoma
U251 CNS = tested on: U251 CNS
OVCAR-3 ovarian = tested on: OVCAR-3 ovarian
HT29 colon = tested on: HT29 colon
UACC-257 melanoma = tested on: UACC-257 melanoma
HS 578T breast = tested on: HS 578T breast
SK-OV-3 ovarian = tested on: SK-OV-3 ovarian
UACC-62 melanoma = tested on: UACC-62 melanoma
HCT-15 colon = tested on: HCT-15 colon
K-562 leukemia = tested on: K-562 leukemia

SMILES | GI50 (SK-MEL-5 melanoma) | TGI (SK-MEL-5 melanoma) | GI50 (U251 CNS) | TGI (U251 CNS) | GI50 (OVCAR-3 ovarian) | TGI (OVCAR-3 ovarian) | GI50 (HT29 colon) | TGI (HT29 colon) | GI50 (UACC-257 melanoma) | TGI (UACC-257 melanoma) | GI50 (HS 578T breast) | TGI (HS 578T breast) | GI50 (SK-OV-3 ovarian) | TGI (SK-OV-3 ovarian) | GI50 (UACC-62 melanoma) | TGI (UACC-62 melanoma) | GI50 (HCT-15 colon) | TGI (HCT-15 colon) | GI50 (K-562 leukemia) | TGI (K-562 leukemia)
CCC[n+]1cc2cc3c(cc2c2c1-c1cc4c(cc1C2)OCO4)OCO3 (tested in a mixture with another compound) | 0.371 µM | 1.6 µM | 0.229 µM | 3.32 µM | 0.894 µM | 4.81 µM | 1.41 µM | 16.6 µM | 0.706 µM | 3.16 µM | 0.437 µM | 3.53 µM | 3.57 µM | 16.4 µM | 0.465 µM | 1.7 µM | 28.2 µM | > 100 µM | 0.581 µM | > 35 µM
COc1cc2c(NC3CCN(C(C)C)CC3)nc(C3CCCCC3)nc2cc1OCCCN1CCCC1 | 1.68 µM | 3.11 µM | 1.97 µM | 5.11 µM | 6.98 µM | 20.4 µM | 1.49 µM | 3.86 µM | 1.67 µM | 3.25 µM | 4.11 µM | 22.8 µM | 9.57 µM | 23.4 µM | 5.47 µM | 16.8 µM | 9.82 µM | 23.9 µM | 1.99 µM | 4.55 µM
CC(=O)c1ccc2c3c1[C@H]1O[C@H]1c1cccc(c1-3)[C@@H]1O[C@H]21 |  | 5.39 µM |  | 4.3 µM |  | 12.1 µM |  | 7.81 µM |  | 8.1 µM |  | 4.95 µM |  | 16 µM |  | 4.15 µM |  | 4.12 µM |  | > 35.2 µM
[Cl][Hg][c]1ccc2ccccc2c1 | 1.25 µM | 3.13 µM | 1.31 µM | 2.68 µM | 1.79 µM | 3.63 µM | 2.8 µM | 9.58 µM | 1.97 µM | 4.33 µM | 1.77 µM | 13.1 µM | 3.87 µM | 9.44 µM | 1.81 µM | 4.45 µM | 1.58 µM | 3.18 µM | 0.862 µM | 9.77 µM
Oc1ccc(Cl)cc1Sc1cc(Cl)ccc1O | 1.92 µM | 15.7 µM and 4.06 µM | 3.31 µM | 22.1 µM and 12.2 µM | 2.79 µM | 15.4 µM and 6.8 µM | 3.27 µM | 33 µM and 12.6 µM | 2.83 µM | 19.3 µM and 6.91 µM |  | 29.7 µM | 4.86 µM | 43.5 µM and 19.1 µM | 3.24 µM | 17.1 µM and 10.7 µM | 3.19 µM | 45.5 µM and 11.4 µM | 3.8 µM | > 100 µM
Cc1ccnc2c(NC(C)CCCN)cc(O)c(O)c12 (centres undefined) | 17.6 µM | 42.1 µM | 9.43 µM | 22.8 µM | 2.45 µM | 7.24 µM | 8.07 µM | 51.8 µM | 22.3 µM | 55.5 µM | 6.26 µM | 43.1 µM | 39.3 µM | > 100 µM | 32.3 µM | > 100 µM | 27 µM | > 100 µM | 26.1 µM | > 100 µM
Cc1cc(Cl)nc(N(CCCNc2ccnc3cc(Cl)ccc23)Cc2cccs2)n1 | 1.42 µM | 2.79 µM | 2.18 µM | 10.2 µM | 2.19 µM | 13.4 µM | 0.57 µM | 4.04 µM | 2.19 µM | 5.49 µM | 2.21 µM | 12.9 µM | 3.27 µM | 12.6 µM | 1.7 µM | 4.51 µM | 1.43 µM | 10.1 µM | 0.496 µM | 8.55 µM
